ChEMBL document CHEMBL5393447, “Selective foxo inhibitors for treatment of diabetes and other disorders related to impaired pancreatic function” (2022)

Tested on: not listed separately
Test: Metabolic stability in human hepatocytes assessed as compound remaining at 0.3 uM measured upto 90 mins by LC-MS/MS analysis
Assay type: ADME, cell-based, Hepatocyte
Conditions: read-out: Stability

remaining at 1.5 h, 0.3 µM [%] | Structure (SMILES)
110 | O=C(Nc1cc(-c2nc3ccccc3[nH]2)n[nH]1)c1ccc(N2CCNCC2)cc1

Target: Forkhead box protein O1 (Homo sapiens) (UniProt Q12778)
Conditions: HEK293, dose 1-50000 nM
Description: Inhibition of human FOXO1 expressed in HEK293 cells at 1 nM to 50 uM by Dual-Glo luciferase assay relative to control

Forkhead box protein O1 (Homo sapiens), sequence (Q12778 whole entry): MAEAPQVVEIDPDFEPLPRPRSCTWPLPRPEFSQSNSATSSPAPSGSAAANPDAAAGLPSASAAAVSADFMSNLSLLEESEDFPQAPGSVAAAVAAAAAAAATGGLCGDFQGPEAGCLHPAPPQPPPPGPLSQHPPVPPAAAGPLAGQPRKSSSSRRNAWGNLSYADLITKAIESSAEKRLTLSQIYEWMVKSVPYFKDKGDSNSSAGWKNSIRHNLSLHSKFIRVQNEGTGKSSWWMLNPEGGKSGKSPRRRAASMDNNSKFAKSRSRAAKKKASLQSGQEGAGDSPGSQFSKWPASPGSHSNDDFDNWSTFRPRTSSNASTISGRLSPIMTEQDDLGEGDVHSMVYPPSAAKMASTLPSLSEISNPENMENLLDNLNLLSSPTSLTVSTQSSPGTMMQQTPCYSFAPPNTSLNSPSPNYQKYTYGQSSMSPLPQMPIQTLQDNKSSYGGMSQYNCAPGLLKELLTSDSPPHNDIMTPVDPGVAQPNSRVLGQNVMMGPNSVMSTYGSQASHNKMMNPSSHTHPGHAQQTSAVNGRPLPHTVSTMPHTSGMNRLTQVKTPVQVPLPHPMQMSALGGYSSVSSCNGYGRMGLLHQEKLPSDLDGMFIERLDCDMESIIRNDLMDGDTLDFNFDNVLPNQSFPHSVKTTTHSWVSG

inhibition [%] | Structure (SMILES)
< 40 | CC(=O)Nc1cc(-c2nc3ccccc3[nH]2)n[nH]1
> 40 | CN1CCC(c2ccc(C(=O)Nc3cc(-c4nc5ccccc5[nH]4)n[nH]3)cc2)CC1
> 40 | CN1CCN(c2ccc(C(=O)Nc3cc(-c4nc5ccccc5[nH]4)n[nH]3)cc2)CC1
> 40 | COc1ccc(C(=O)Nc2cc(-c3nc4c(C(F)(F)F)cccc4[nH]3)[nH]n2)cc1Cl
< 40 | Nc1cc(-c2nc3ccccc3[nH]2)n[nH]1
> 40 | CC(=O)N1CCN(c2ccc(C(=O)Nc3cc(-c4nc5ccccc5[nH]4)n[nH]3)cc2)CC1
> 40 | COc1ccc(C(=O)Nc2cc(-c3nc4cc(OC(F)(F)F)ccc4[nH]3)[nH]n2)cc1Cl
> 40 | COc1ccc(C(=O)Nc2cc(-c3nc4cc(C(F)(F)F)ccc4[nH]3)[nH]n2)cc1Cl
